# Data as given in ChEMBL document CHEMBL4382204 (Eur J Med Chem, 2018).
# Tests used:
# [1] = biological target: Fibroblast growth factor receptor 1 (Homo sapiens) (UniProt P11362); assay: Inhibition of wild type C-terminal FLAG-tagged human TEL fused FGFR1 (unknown origin) transfected in mouse BAF3 cells assessed as growth inhibition after 72 hrs by CCK8 assay; format: cell-based
# [2] = Toxicity in nu/nu mouse allografted with mouse BAF3 cells expressing BCR/ABL T315I mutant at 25 to 50 mg/kg, po administered daily via gavage for 14 days; format: organism-based; conditions: in vivo, 336 h
# Sequence of Fibroblast growth factor receptor 1 (Homo sapiens) (P11362 22-822 limits assumed): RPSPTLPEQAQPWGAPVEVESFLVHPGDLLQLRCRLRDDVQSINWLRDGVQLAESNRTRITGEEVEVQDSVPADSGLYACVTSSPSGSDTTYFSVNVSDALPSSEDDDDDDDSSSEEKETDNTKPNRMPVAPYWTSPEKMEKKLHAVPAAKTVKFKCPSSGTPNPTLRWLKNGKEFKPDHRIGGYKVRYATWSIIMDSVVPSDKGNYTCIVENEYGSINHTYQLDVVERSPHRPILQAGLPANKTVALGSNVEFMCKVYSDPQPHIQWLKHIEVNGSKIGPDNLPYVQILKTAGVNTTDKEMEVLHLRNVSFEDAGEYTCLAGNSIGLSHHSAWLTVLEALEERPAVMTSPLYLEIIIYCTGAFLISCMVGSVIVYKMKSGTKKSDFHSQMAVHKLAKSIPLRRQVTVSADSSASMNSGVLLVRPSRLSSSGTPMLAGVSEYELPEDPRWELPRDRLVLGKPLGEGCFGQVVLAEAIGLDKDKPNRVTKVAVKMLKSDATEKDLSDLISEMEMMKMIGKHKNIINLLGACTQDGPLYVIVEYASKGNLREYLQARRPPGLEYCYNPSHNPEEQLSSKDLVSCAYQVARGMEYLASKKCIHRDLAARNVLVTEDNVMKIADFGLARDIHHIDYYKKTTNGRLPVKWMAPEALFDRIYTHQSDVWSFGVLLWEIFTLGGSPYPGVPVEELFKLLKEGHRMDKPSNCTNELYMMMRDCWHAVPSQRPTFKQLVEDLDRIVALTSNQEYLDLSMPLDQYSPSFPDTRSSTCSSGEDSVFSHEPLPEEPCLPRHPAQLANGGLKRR
smiles,measurement,setting,value
CN1CCN(Cc2ccc(NC(=O)CCSc3ccc4c(/C=C/c5ccccn5)n[nH]c4c3)cc2C(F)(F)F)CC1,GI50,[1],42 nM
same,Activity,[2],Non-Toxic
